Data taken from patent publication US20070275382A1, “Biomarkers for the Efficacy of Somatostatin Analogue Treatment” (priority 2003, published 2007).
*1 amine or outer side, *2 acyl side, *3 side chain or, on linkers, in order; H or OH if unused. Where a SMILES comes first, the peptide text is derived from it. Side-chain parts run from the residue outwards. [ ]: non-standard residue; d: D form. The star is where a group is joined. Ethylenediamine = C(CN[*:2])N[*:1]; Hyp = O=C(O)[CH]1C[CH](O)CN1; Phg = N[CH](C(=O)O)c1ccccc1; CO = O=C([*:1])[*:2]; Bn = c1ccc(C*)cc1

System: Thyroid
Test: Microarray gene expression profiling (HG-U95A), thyroid
Format: in vivo, cynomolgus monkeys
Method: Origin of tissue and processing. Male and female cynomolgus monkeys received subcutaneously pasireotide (100 μg/animal/day) or the vehicle for 14 days. On day 15, all animals were sacrificed and tissues for RNA extraction were immediately snap-frozen and kept at −80° C. until processing.
RNA expression profiling was conducted by means of the HG-U95A gene expression probe array (Affymetrix; Santa Clara, Calif. USA), containing more than 12,600 probe sets interrogating primarily full-length human genes and also some control probe sets. The experiment was conducted according to the recommendations of the manufacturer. Briefly, total RNA was obtained by acid guanidinium thiocyanate-phenol-chloroform extraction (Trizol®, Invitrogen Life Technologies, San Diego, Calif. USA) from each frozen tissue section. The total RNA was then purified on an affinity resin (Rneasy®, Qiagen) and quantified. Double stranded cDNA was synthesized with a starting amount of approximately 5 μg full-length total RNA using the Superscript® Choice System (Invitrogen Life Technologies, Carlsbad, Calif. USA) in the presence of a T7-(dT)24 DNA oligonucleotide primer. Following synthesis, the cDNA was purified by phenol/chloroform/isoamyl alcohol extraction and ethanol precipitation. The purified cDNA was then transcribed in vitro using the BioArray® High Yield RNA Transcript Labeling Kit (ENZO, Farmingdale, N.Y. USA) in the presence of biotinylated ribonucleotides form biotin labelled cRNA. The labelled cRNA was then purified on an affinity resin (Rneasy®, Qiagen), quantified and fragmented. An amount of approximately 10 μg labelled cRNA was hybridized for 16 hours at 45° C. to an expression probe array. The array was then washed and stained twice with streptavidin-phycoerythrin (Molecular Probes,) using the GeneChip® Fluidics Workstation 400 (Affymetrix, Santa Clara, Calif. USA). The array was then scanned twice using a confocal laser scanner (GeneArray® Scanner, Agilent, Palo Alto, Calif. USA) resulting in one scanned image. This resulting “.dat-file” was processed using the MAS4 program (Affymetrix) into a “.cel-file”. The “.cel file” was captured and loaded into the Affymetrix GeneChip® Laboratory Information Management System (LIMS). The LIMS database is connected to a UNIX Sun Solaris server through a network filing system that allows for the average intensities for all probes cells (CEL file) to be downloaded into an Oracle database (NPGN). Raw data was converted to expression levels using a “target intensity” of 150. The data were evaluated for quality control and loaded in the GeneSpring® software 4.2.4 (Silicon Genetics, Calif. USA) for analysis.
On the human Affymetrix HGU95Av2 chip, probe sets for individual genes contain 20 oligonucleotide pairs, each composed of a “perfect match” 25-mer and a “mismatch” 25-mer differing from the “perfect” match oligonucleotide at a single base. After probe labelling, hybridization, and laser scanning, the expression level was estimated by averaging the differences in signal intensity measured by oligonucleotide pairs of a given probe (AvgDiff value). The fold changes and directions were calculated for selected genes, from the differences of the AvgDiff values between controls and treated.
To identify genes that were impacted by pasireotide, the dataset was initially filtered to exclude in a first wave of analysis, genes whose values were systematically in the lower expression ranges where the experimental noise is high (at least 80 in a number of experiments corresponding to the smallest number of replicas of any experimental point). In a second round of selection a threshold p-value of 0.05 (based on a t-test) identified differences between treated and control based on a two component error model (Global Error Model) and, whenever possible, with a stepdown correction for multi-hypothesis testing (Benjamini and Hochberg false discovery rate). […]

[1] = ↑ increase, treated vs controls
[2] = ↓ decrease, treated vs controls

## NCCCCC1NC(=O)C(Cc2c[nH]c3ccccc23)NC(=O)C(c2ccccc2)NC(=O)C2CC(OC(=O)NCCN)CN2C(=O)C(Cc2ccccc2)NC(=O)C(Cc2ccc(OCc3ccccc3)cc2)NC1=O (stereo not drawn) [Pasireotide, cyclo[4-(NH2—C2H4—NH—CO—O)Pro-Phg-DTrp-Lys-Tyr(4-Bzl)-Phe]] (cyclo(F[Hyp]([CO-Ethylenediamine])[Phg]WKY(Bn)); configuration not given here)
0.1 mg/animal/14day
  IGF-1 expression level, AvgDiff (range): 58 (20 to 114)
Direction only, treated vs controls
  Endothelial differentiation-related factor 1 RNA expression change: related factor 1 ↑
[1]
  CD2 antigen (cytoplasmic tail)-binding protein 2 RNA expression fold change: ↑ x3.5
  Cadherin 13, H-cadherin (heart) RNA expression fold change: ↑ x2
  Cannabinoid receptor 2 (macrophage) RNA expression fold change: ↑ x3
  GABA (B) receptor 1, isoform a precursor RNA expression fold change: ↑ x2.5
  IFNα-inducible protein 27 RNA expression fold change: protein 27 ↑ x3
  IFNγ-inducible protein 30 RNA expression fold change: ↑ x3.5
  PDGF-associated Protein RNA expression fold change: Protein ↑ x2
  PDGFR β RNA expression fold change: ↑ x2
  Phosphatidyl ethanolamine N-methyl-transferase RNA expression fold change: ↑ x2
  Pro-platelet basic protein (includes platelet basic protein, β-thromboglobulin, connective tissue-activating peptide III, neu) 2 RNA expression fold change: 2 ↑ x3.5
  RANTES RNA expression fold change: ↑ x10.5
  Solute carrier family 21 (PG transporter), member 2 RNA expression fold change: member 2 ↑ x2
  TNF (ligand) superfamily, member 10 RNA expression fold change: ↑ x2
  Thrombospondin 2 RNA expression fold change: spondin 2 ↑ x2
  VWF precursor RNA expression fold change: precursor ↑ x2
[2]
  ATPase, Ca++ transporting, cardiac muscle, fast twitch 1 RNA expression fold change: ↓ x4.5
  Adenylate cyclase activating polypeptide precursor RNA expression fold change: ↓ x1.5
  Adrenergic, α-2C-, receptor RNA expression fold change: ↓ x2.5
  Bcl-2 binding component 3 RNA expression fold change: ↓ x2
  Brain cannabinoid receptor 1 RNA expression fold change: ↓ x2
  CD2 antigen (p50), sheep red blood cell receptor RNA expression fold change: ↓ x7.5
  COL1A1 and PDGFB fusion transcript RNA expression fold change: transcript ↓ x6
  Calcium/calmodulin dependent protein kinase 1 RNA expression fold change: ↓ x2
  Calcium/calmodulin-dependent PK IV RNA expression fold change: IV ↓ x7.5
  Calmodulin-dependent PK IV (CaM-kinase IV) RNA expression fold change: IV) ↓ x7.5
  Cdc-like 5 (cholinesterase-related cell division controller) RNA expression fold change: ↓ x2
  Cdk 5, regulatory subunit 1 (p35) RNA expression fold change: ↓ x5
  Chemokine (C-X-C motif), receptor 4 (fusin) RNA expression fold change: (fusin) ↓ x3
  Cholecystokinin B receptor RNA expression fold change: B receptor ↓ x3
  Cyclin B2 RNA expression fold change: ↓ x2.5
  DAG 1 kinase, α (80 kD) RNA expression fold change: ↓ x4
  EGF-like module containing, mucin-like, hormone receptor-like sequence 1 RNA expression fold change: ↓ x5
  FKBP-associated protein RNA expression fold change: protein ↓ x2.5
  Flt3 ligand RNA expression fold change: Flt3 ligand ↓ x4.5
  Fms-related tyrosine kinase 1(VEGF/vascular permeability factor receptor) RNA expression fold change: ↓ x2
  GABA (A) receptor, γ2 precursor RNA expression fold change: ↓ x1.5
  Gastric inhibitory polypeptide 1 receptor RNA expression fold change: receptor ↓ x2
  Glutamate receptor, metabotropic 2 precursor RNA expression fold change: precursor ↓ 3.5
  Growth arrest-specific 1 RNA expression fold change: ↓ x2.5
  IFNγ responsive transcript RNA expression fold change: transcript ↓ x1.5
  IGF-1 RNA expression fold change: IGF-1 ↓ x1.5
  IL2-inducible T-cell kinase RNA expression fold change: cell kinase ↓ x12
  IL9 receptor RNA expression fold change: ↓ x2
  IP3 receptor type 3 RNA expression fold change: ↓ x1.5
  K+ voltage-gated channel, shaker-related subfamily, member 3 RNA expression fold change: ↓ x4.5
  LTB4 receptor (chemokine receptor-like 1) RNA expression fold change: ↓ x1.5
  Lymphocyte specific protein tyrosine kinase RNA expression fold change: ↓ x4
  P56lck RNA expression fold change: P56lck ↓ x18
  PDGFR α RNA expression fold change: ↓ x3
  PIP 5-phosphatase type IV RNA expression fold change: x3
  PLC, γ 1 (formerly subtype 148) RNA expression fold change: 148) ↓ x2
  RAG1 RNA expression fold change: RAG1 ↓ x18
  RAG2 RNA expression fold change: RAG2 ↓ x5
  SH2 domain protein 1A, Duncan's disease (lymphoproliferative syndrome) RNA expression fold change: ↓ x7.5
  Signalling lymphocytic activation molecule RNA expression fold change: molecule ↓ x4.5
  TCR ζ chain precursor RNA expression fold change: precursor ↓ x5.5
  TSHR RNA expression fold change: TSHR ↓ x2
  Transcription factor 7 (T-cell specific, HMG-box) RNA expression fold change: box) ↓ x16.5
  c-AMP responsive element binding protein 1 RNA expression fold change: protein 1 ↓ x2
